Active and inactive are the calls of the source. The rule behind the calls is not given here.
What was measured:
Mus musculus [1] = experiment: Neurotoxicity in Mus musculus Swiss albino (mouse) assessed as motor impairment at 600 mg/kg, ip measured for 1 min by rotarod test; format: toxicity, organism-based; design: dose 600 mg/kg, route intraperitoneal; conditions: in vivo
Mus musculus [2] = experiment: Neurotoxicity in Mus musculus Swiss albino (mouse) assessed as motor impairment at 100 mg/kg, ip measured for 1 min by rotarod test; format: toxicity, organism-based; design: dose 100 mg/kg, route intraperitoneal; conditions: in vivo
Mus musculus [3] = experiment: Anticonvulsant activity in Mus musculus Swiss albino (mouse) assessed as protection against subcutaneous pentylenetetrazol-induced clonic spasms at 300 mg/kg, ip after 4 hr post compound treatment; format: functional, organism-based; design: dose 300 mg/kg
Mus musculus [4] = experiment: Anticonvulsant activity in Mus musculus Swiss albino (mouse) assessed as protection against subcutaneous pentylenetetrazol-induced clonic spasms at 300 mg/kg, ip after 0.5 hr post compound treatment; format: functional, organism-based; design: dose 300 mg/kg
Mus musculus [5] = experiment: Anticonvulsant activity in Mus musculus Swiss albino (mouse) assessed as protection against maximal electroshock-induced seizures at 300 mg/kg, ip measured after 4 hr post compound treatment; format: functional, organism-based; design: dose 300 mg/kg
Mus musculus [6] = experiment: Anticonvulsant activity in Mus musculus Swiss albino (mouse) assessed as protection against maximal electroshock-induced seizures at 300 mg/kg, ip measured after 0.5 hr post compound treatment; format: functional, organism-based; design: dose 300 mg/kg
[7] = Neurotoxicity in ip dosed Mus musculus Swiss albino (mouse) assessed as motor impairment measured after 0.5 hr post compound treatment for 1 min by rotarod test; format: toxicity, organism-based; conditions: in vivo
[8] = Protective index, ratio of TD50 for neurotoxicity in Mus musculus Swiss albino (mouse) to ED50 for anticonvulsant activity in Mus musculus Swiss albino (mouse) measured 0.5 hr post compound treatment; format: toxicity, organism-based; conditions: in vivo, read-out: Ratio TD50/ED50
Mus musculus [9] = experiment: Anticonvulsant activity in ip dosed Mus musculus Swiss albino (mouse) assessed as protection against maximal electroshock-induced seizures measured after 0.5 hr post compound treatment; format: functional
Mus musculus [10] = experiment: Anticonvulsant activity in Mus musculus Swiss albino (mouse) assessed as protection against maximal electroshock-induced seizures at 30 mg/kg, ip measured after 4 hr post compound treatment; format: functional, organism-based; design: dose 30 mg/kg
Mus musculus [11] = experiment: Anticonvulsant activity in Mus musculus Swiss albino (mouse) assessed as protection against maximal electroshock-induced seizures at 30 mg/kg, ip measured after 0.5 hr post compound treatment; format: functional, organism-based; design: dose 30 mg/kg
Mus musculus [12] = experiment: Anticonvulsant activity in ip dosed Mus musculus Swiss albino (mouse) assessed as protection against maximal electroshock-induced seizures measured; format: functional
[13] = Protective index, ratio of TD50 for neurotoxicity in Mus musculus Swiss albino (mouse) to ED50 for anticonvulsant activity in Mus musculus Swiss albino (mouse); format: toxicity, organism-based; conditions: in vivo, read-out: Ratio TD50/ED50
Mus musculus [14] = experiment: Anticonvulsant activity in Mus musculus Swiss albino (mouse) assessed as protection against subcutaneous pentylenetetrazol-induced clonic spasms at 30 mg/kg, ip after 4 hr post compound treatment; format: functional, organism-based; design: dose 30 mg/kg
Mus musculus [15] = experiment: Anticonvulsant activity in Mus musculus Swiss albino (mouse) assessed as protection against subcutaneous pentylenetetrazol-induced clonic spasms at 30 mg/kg, ip after 0.5 hr post compound treatment; format: functional, organism-based; design: dose 30 mg/kg

Row | SMILES | Activity (Mus musculus [1]) | Activity (Mus musculus [2]) | Activity (Mus musculus [3]) | Activity (Mus musculus [4]) | Activity (Mus musculus [5]) | Activity (Mus musculus [6]) | Activity (Mus musculus [10]) | Activity (Mus musculus [11]) | also measured
1 | NC(=O)NNC(=O)Cc1ccccc1-c1cccnc1 | Toxic | Non-toxic | inactive | inactive | inactive | inactive | – | – | –
2 | NC(=O)Cc1ccccc1-c1cccnc1 | Toxic | Non-toxic | – | – | – | – | Active | Active | TD50 at 0.5 hr [7]: 215 mg/kg; selectivity ratio at 0.5 h [8]: 26; ED50 (Mus musculus [9]): 8.28 mg/kg
3 | NC(=S)NNC(=O)Cc1ccccc1-c1cccnc1 | Toxic | Non-toxic | inactive | inactive | inactive | inactive | – | – | –
4 | O=C1CCCN1C(=O)Cc1ccccc1Nc1ccccc1 | Toxic | Non-toxic | – | – | – | – | – | – | ED50 (Mus musculus [12]): 8 mg/kg; selectivity ratio [13]: 87.5
5 | CCC1(c2ccccc2)C(=O)NC(=O)NC1=O [PHENOBARBITAL] | Toxic | Non-toxic | – | – | – | – | – | – | Activity (Mus musculus [14]): Active; Activity (Mus musculus [15]): Active
6 | CN1C(=O)CN=C(c2ccccc2)c2cc(Cl)ccc21 [DIAZEPAM] | Toxic | Non-toxic | – | – | – | – | – | – | Activity (Mus musculus [14]): Active; Activity (Mus musculus [15]): Active
7 | O=C1NC(=O)C(c2ccccc2)(c2ccccc2)N1 [PHENYTOIN] | Toxic | Non-toxic | – | – | – | – | Active | Active | –
8 | O=C(NCc1ccccc1-c1cccnc1)NC1CCCCC1 | Toxic | Non-toxic | inactive | inactive | inactive | inactive | – | – | –
9 | CC(C)(C)NC(=O)NCc1ccccc1-c1cccnc1 | Toxic | Non-toxic | inactive | inactive | inactive | inactive | – | – | –
10 | NC(=O)N1c2ccccc2C=Cc2ccccc21 [CARBAMAZEPINE] | Toxic | Non-toxic | – | – | – | – | Active | Active | –

Source: ChEMBL document CHEMBL3045718, “Substituted 2-[2-(pyridin-3-yl) phenyl] acetamides and ureas: design, synthesis, and anticonvulsant screening in mice” (Med Chem Res, 2012)
